From US12042547B2, “Method for producing luminescent particles, luminescent particles, and bioimaging material” (KYULUX, INC., priority 2018, dated 2024)

Assay: Evaluation of luminescence properties (emission maximum, PL quantum yield, emission lifetime)
Type: physicochemical
Details: toluene solution 1.0×10^−5 mol/L, 340-nm excitation
Description: The following examples illustrate the present invention in greater detail. It is to be understood that changes may be made to the below-described materials, processing manner, processing procedure, etc. without departing from the scope of the present invention. Thus, the present invention should not be construed as limited to the following examples. An evaluation of luminescence properties was performed by using an optical spectroscope (PMA-12, manufactured by Hamamatsu Photonics K.K.), and an observation of the shape of particles was performed by using a scanning electron microscope (Inspect S, manufactured by FEI). The average diameter and the polydispersion index of luminescent particles were determined by cumulant analysis using a dynamic light scattering measurement device (DLS-8000DL, manufactured by Otsuka Electronics Co., Ltd.).
The example particles 1, the example particles 2 and the comparative particles 1 were separately dispersed in water to prepare three aqueous dispersions (0.05 μg/L). For each of the aqueous dispersions and a toluene solution of 4CzIPN (1.0×10^−5 mol/L), the emission maximum wavelength, the PL quantum yield (photoluminescence quantum yield) and the emission lifetime τ1, τ2 were measured using 340-nm excitation light.
The resulting luminescent particles contained particles having a maximum diameter of less than 1000 nm. The resulting luminescent particles were dispersed in water to prepare an aqueous dispersion (0.05 μg/L). The aqueous dispersion was subjected to measurement of the emission spectrum with 340-nm excitation light. […] The full width at half maximum (FWHM) was as narrow as 29 nm.

## N#Cc1c(-n2c3ccccc3c3ccccc32)c(C#N)c(-n2c3ccccc3c3ccccc32)c(-n2c3ccccc3c3ccccc32)c1-n1c2ccccc2c2ccccc21 [4CzIPN]
After nitrogen bubbling
  Emission lifetime τ1: 16 ns
  Emission lifetime τ2: 4.71 μs
  Emission maximum wavelength: 505 nm
  PL quantum Yield: 83%
Before nitrogen bubbling
  Emission lifetime τ1: 11 ns
  Emission lifetime τ2: 0.31 μs
  Emission maximum wavelength: 505 nm
  PL quantum Yield: 21%
